Results as given in patent publication US10316017B2, “COT modulators and methods of use thereof” (Gilead Sciences, Inc., priority 2015, dated 2019).

How the values were obtained:
[1] = target: T1, human Cot catalytic domain (30-397 amino acids) (Homo sapiens, UniProt P41279); experiment: High Throughput Cot Biochemical Assay (KinEASE TR-FRET); conditions: Cot biochemical HTRF (KinEASE TR-FRET) assay; read-out: IC50 HTRF
T1 construct: Purified recombinant human Cot catalytic domain (30-397 amino acids) was purchased from Cama Biosciences; purchased Cama Biosciences (so in the source)
T1 sequence (P41279 30-397): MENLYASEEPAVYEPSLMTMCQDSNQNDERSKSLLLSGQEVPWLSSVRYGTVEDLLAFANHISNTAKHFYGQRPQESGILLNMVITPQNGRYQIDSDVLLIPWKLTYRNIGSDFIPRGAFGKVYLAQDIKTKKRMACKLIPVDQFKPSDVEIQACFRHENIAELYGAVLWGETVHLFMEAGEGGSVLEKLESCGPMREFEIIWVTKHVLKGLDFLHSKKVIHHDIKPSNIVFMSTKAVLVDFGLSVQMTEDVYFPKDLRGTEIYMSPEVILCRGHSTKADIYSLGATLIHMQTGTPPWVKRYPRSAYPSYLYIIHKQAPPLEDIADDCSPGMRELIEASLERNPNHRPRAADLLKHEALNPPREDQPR
How it was run: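 First, purified human Cot (aa 30-397) at 5 nM phosphorylates an XL665-labeled STK3 peptide (1 μM) at 400 μM ATP, pH 7.0, 0.1% DMSO. Then a europium-conjugated phospho-specific antibody binds the product, giving the TR-FRET signal.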

[2] = tested on: TNFα production in LPS-stimulated human monocytes; experiment: Cot Monocyte TNFα Cell Based Assay; conditions: Homo sapiens, Monocyte, TNFα in LPS-stimulated human monocytes; read-out: EC50 TNF
How it was run: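 5,000 cells/well; cmpd 1 h, 37 °C, 0.5% DMSO final; LPS 50 pg/ml, 4 h, 37 °C; media TNFα by HTRF sandwich (cryptate/XL665), RT overnight; % control vs unstimulated/stimulated wells.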

Compound	IC50 [1]	EC50 [2]
CC(=O)N(C)c1cccc([C@H](Nc2cc(Cl)c3ncc(C#N)c(Nc4cnc(F)c(F)c4)c3c2)c2c[nH]nn2)c1 [Example 496, (S)-N-(3-(((8-chloro-3-cyano-4-((5,6-difluoropyridin-3-yl)amino)quinolin-6-yl)amino)(1H-1,2,3-triazol-4-yl)methyl)phenyl)-N-methylacetamide]	0.004 µM	1.84 µM
N#Cc1cnc2c(Cl)cc(N[C@@H](c3ccccc3)c3cn([C@@H]4CCN(C5COC5)C[C@H]4O)nn3)cc2c1Nc1ccc(F)c(Cl)c1 [Example 497, 8-chloro-4-((3-chloro-4-fluorophenyl)amino)-6-(((S)-(1-((3R,4R)-3-hydroxy-1-(oxetan-3-yl)piperidin-4-yl)-1H-1,2,3-triazol-yl)(phenyl)methyl)amino)quinoline-3-carbonitrile]	0.026 µM	0.985 µM
N#Cc1cnc2c(Cl)cc(N[C@@H](c3cccc(-c4ncco4)c3)c3cn(C4COC4)nn3)cc2c1Nc1cnc(F)c(F)c1 [Example 499, (S)-8-chloro-4-((5,6-difluoropyridin-3-yl)amino)-6-(((3-(oxazol-2-yl)phenyl) (1-(oxetan-3-yl)-1H-1,2,3-triazol-4-yl)methyl)amino)quinoline-3-carbonitrile]	0.006 µM	0.985 µM
N#Cc1cnc2c(Cl)cc(N[C@H](c3cn(C4COC4)nn3)c3c(F)cc(F)cc3F)cc2c1Nc1cnc(F)c(F)c1 [Example 500, (S)-8-chloro-4-((5,6-difluoropyridin-3-yl)amino)-6-(((1-(oxetan-3-yl)-1H-1,2,3-triazol-4-yl)(2,4,6-trifluorophenyl)methyl)amino)quinoline-3-carbonitrile]	0.092 µM	2.16 µM
N#Cc1cnc2c(Cl)cc(N[C@H](c3cn(C4COC4)nn3)c3ccccc3C(F)(F)F)cc2c1Nc1cnc(F)c(F)c1 [Example 501, (S)-8-chloro-4-((5,6-difluoropyridin-3-yl)amino)-6-(((1-(oxetan-3-yl)-1H-1,2,3-triazol-4-yl)(2-(trifluoromethyl)phenyl)methyl)amino)quinoline-3-carbonitrile]	0.094 µM	2.14 µM
CC(C)(C)N1CCC(n2cc([C@@H](Nc3cc(Cl)c4ncc(C#N)c(N)c4c3)c3ccccc3)nn2)CC1 [Example 504, (S)-4-amino-6-(((1-(1-(tert-butyl)piperidin-4-yl)-1H-1,2,3-triazol-4-yl)(phenyl)methyl)amino)-8-chloroquinoline-3-carbonitrile]	1.78 µM	8.51 µM
CC(C)(C)N1CCC(n2cc([C@@H](Nc3cc(Cl)c4ncc(C#N)c(Nc5ccc(F)c(C(F)(F)F)c5)c4c3)c3ccccc3)nn2)CC1 [Example 505, (S)-6-(((1-(1-(tert-butyl)piperidin-4-yl)-1H-1,2,3-triazol-4-yl)(phenyl)methyl)amino)-8-chloro-4-((4-fluoro-3-(trifluoromethyl)phenyl)amino)quinoline-3-carbonitrile]	0.24 µM	2.62 µM
CC1CC(Nc2c(C#N)cnc3c(Cl)cc(N[C@@H](c4ccccc4)c4cn(C5CCN(C(C)(C)C)CC5)nn4)cc23)CC(C)O1 (stereo partly drawn) [Example 509, 6-(((S)-(1-(1-(tert-butyl)piperidin-4-yl)-1H-1,2,3-triazol-4-yl)(phenyl)methyl)amino)-8-chloro-4-((2,6-dimethyltetrahydro-2H-pyran-4-yl)amino) quinoline-3-carbonitrile]	0.206 µM	2.99 µM
CCN1CC[C@@H](n2cc([C@@H](Nc3cc(Cl)c4ncc(C#N)c(Nc5ccc(F)c(Cl)c5)c4c3)c3ccccc3)nn2)[C@H](O)C1 [Example 514, 8-chloro-4-((3-chloro-4-fluorophenyl)amino)-6-(((S)-(1-((3R,4R)-1-ethyl-3-hydroxypiperidin-4-yl)-1H-1,2,3-triazol-4-yl)(phenyl)methyl)amino) quinoline-3-carbonitrile]	0.002 µM	0.062 µM
N#Cc1cnc2c(Cl)cc(N[C@@H](c3ccccc3)c3cn([C@@H]4CCNC[C@H]4O)nn3)cc2c1Nc1ccc(F)c(Cl)c1 [Example 515, 8-chloro-4-((3-chloro-4-fluorophenyl)amino)-6-(((S)-(1-((3R,4R)-3-hydroxypiperidin-4-yl)-1H-1,2,3-triazol-4-yl)(phenyl)methyl)amino) quinoline-3-carbonitrile]	0.001 µM	0.324 µM

More lines, in order of falling IC50 [1], values ahead:

IC50 [1]	EC50 [2]	Compound
5.35 µM	> 10 µM	CCC(Nc1c(C#N)cnc2c(Cl)cc(N[C@@H](c3ccccc3)c3cn(C4CCN(C(C)(C)C)CC4)nn3)cc12)C1CCOCC1 (stereo partly drawn) [Example 508, 6-(((S)-(1-(1-(tert-butyl)piperidin-4-yl)-1H-1,2,3-triazol-4-yl)(phenyl)methyl)amino)-8-chloro-4-((1-(tetrahydro-2H-pyran-4-yl)propyl)amino)quinoline-3-carbonitrile]
1.69 µM	5.29 µM	CC(C)(C)N1CCC(n2cc([C@@H](Nc3cc(Cl)c4ncc(C#N)c(N[C@@H]5CCOc6ccccc65)c4c3)c3ccccc3)nn2)CC1 [Example 506, 6-(((S)-(1-(1-(tert-butyl)piperidin-4-yl)-1H-1,2,3-triazol-4-yl)(phenyl)methyl)amino)-8-chloro-4-(((R)-chroman-4-yl)amino)quinoline-3-carbonitrile]
0.741 µM	8.51 µM	CC(C)(C)N1CCC(n2cc([C@@H](Nc3cc(Cl)c4ncc(C#N)c(N[C@H]5CCOc6ccccc65)c4c3)c3ccccc3)nn2)CC1 [Example 507, 6-(((S)-(1-(1-(tert-butyl)piperidin-4-yl)-1H-1,2,3-triazol-4-yl)(phenyl)methyl)amino)-8-chloro-4-(((S)-chroman-4-yl)amino)quinoline-3-carbonitrile]
0.16 µM	1.95 µM	N#Cc1cnc2c(Cl)cc(N[C@H](c3c[nH]nn3)c3ccccc3C(F)(F)F)cc2c1Nc1cnc(F)c(F)c1 [Example 502, (S)-6-(((1H-1,2,3-triazol-4-yl)(2-(trifluoromethyl)phenyl)methyl)amino)-8-chloro-4-((5,6-difluoropyridin-3-yl)amino)quinoline-3-carbonitrile]
0.098 µM	1.69 µM	N#Cc1cnc2c(Cl)cc(N[C@H](c3c[nH]nn3)c3c(F)cc(F)cc3F)cc2c1Nc1cnc(F)c(F)c1 [Example 503, (S)-6-(((1H-1,2,3-triazol-4-yl)(2,4,6-trifluorophenyl)methyl)amino)-8-chloro-4-((5,6-difluoropyridin-3-yl)amino)quinoline-3-carbonitrile]
0.085 µM	1.1 µM	N#Cc1cnc2c(Cl)cc(N[C@@H](c3ccc(F)cc3)c3cn(CC(F)(F)F)nn3)cc2c1Nc1cnc(F)c(F)c1 [Example 512, (S)-8-chloro-4-((5,6-difluoropyridin-3-yl)amino)-6-(((4-fluorophenyl)(1-(2,2,2-trifluoroethyl)-1H-1,2,3-triazol-4-yl)methyl)amino)quinoline-3-carbonitrile]
0.052 µM	0.57 µM	N#Cc1cnc2c(Cl)cc(N[C@@H](c3cccc(CN4CC(F)(F)C4)c3)c3c[nH]nn3)cc2c1Nc1ccc(Cl)c(Cl)c1F [Example 518, (S)-8-chloro-4-((3,4-dichloro-2-fluorophenyl)amino)-6-(((3-((3,3-difluoroazetidin-1-yl)methyl)phenyl)(1H-1,2,3-triazol-4-yl)methyl)amino) quinoline-3-carbonitrile]
0.022 µM	1.33 µM	N#Cc1cnc2c(Cl)cc(N[C@@H](c3ccc(F)cc3)c3c[nH]nn3)cc2c1Nc1cnc(F)c(F)c1 [Example 513, (S)-8-chloro-4-((5,6-difluoropyridin-3-yl)amino)-6-(((4-fluorophenyl)(1H-1,2,3-triazol-4-yl)methyl)amino) quinoline-3-carbonitrile]
0.017 µM	0.701 µM	N#Cc1cnc2c(Cl)cc(N[C@@H](c3ccc(F)cc3)c3cn(C4COC4)nn3)cc2c1Nc1cnc(F)c(F)c1 [Example 511, (S)-8-chloro-4-((5,6-difluoropyridin-3-yl)amino)-6-(((4-fluorophenyl)(1-(oxetan-3-yl)-1H-1,2,3-triazol-4-yl)methyl)amino)quinoline-3-carbonitrile]
0.01 µM	0.255 µM	N#Cc1cnc2c(Cl)cc(N[C@@H](c3ccccc3)c3cn([C@@H]4CCN(C5COC5)C[C@H]4O)nn3)cc2c1Nc1cccc(Cl)c1 [Example 517, 8-chloro-4-((3-chlorophenyl)amino)-6-(((S)-(1-((3R,4R)-3-hydroxy-1-(oxetan-3-yl)piperidin-4-yl)-1H-1,2,3-triazol-4-yl)(phenyl)methyl)amino) quinoline-3-carbonitrile]
0.008 µM	0.52 µM	N#Cc1cnc2c(Cl)cc(N[C@@H](c3cccc(-c4ncco4)c3)c3c[nH]nn3)cc2c1Nc1cnc(F)c(F)c1 [Example 498, (S)-8-chloro-4-((5,6-difluoropyridin-3-yl)amino)-6-(((3-(oxazol-2-yl)phenyl)(1H-1,2,3-triazol-4-yl)methyl)amino) quinoline-3-carbonitrile]
0.005 µM	0.321 µM	CC(=O)N(C)c1cccc([C@H](Nc2cc(Cl)c3ncc(C#N)c(Nc4cnc(F)c(F)c4)c3c2)c2cn(CC(F)(F)F)nn2)c1 [Example 510, (S)-N-(3-(((8-chloro-3-cyano-4-((5,6-difluoropyridin-3-yl)amino)quinolin-6-yl)amino)(1-(2,2,2-trifluoroethyl)-1H-1,2,3-triazol-4-yl)methyl)phenyl)-N-methylacetamide]
0.004 µM	0.092 µM	CCN1CCC(n2cc([C@@H](Nc3cc(Cl)c4ncc(C#N)c(Nc5cccc(Cl)c5)c4c3)c3ccccc3)nn2)[C@H](O)C1 (stereo partly shown) [Example 516]
